Measurements reported in PubChem BioAssay AID248 (DTP/NCI, 2004).
Where “and” joins values, the source holds several entries; their conditions need not be identical. Equal entries are not always repeated. Toxic doses and inconclusive results are not listed. Rule as the data show it: active = T/C of 150% or more; inactive = T/C below 125%.

System: L1210 leukemia ip in BDF1 mice, survival T/C
Experiment: NCI In Vivo Anticancer Drug Screen. Data for tumor model L1210 Leukemia (intraperitoneal) in B6D2F1 (BDF1) mice
Settings: endpoint: mean survival time, higher = longer survival
How it was run: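 In this screen, tumor-bearing mice given compound are compared to those given vehicle, and their survival values are reported as a treated-to-control quotient.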

[1] = dose: 100.0 mg/kg/injection, schedule: Q01DX009 (ip), vehicle: Klucel (hydroxypropylcellulose) (HPC)
[2] = dose: 100.0 mg/kg/injection, schedule: Q04DX003 (ip), vehicle: Klucel (hydroxypropylcellulose) (HPC)
[3] = dose: 200.0 mg/kg/injection, schedule: Q01DX009 (ip), vehicle: Klucel (hydroxypropylcellulose) (HPC)
[4] = dose: 200.0 mg/kg/injection, schedule: Q04DX003 (ip), vehicle: Klucel (hydroxypropylcellulose) (HPC)
[5] = dose: 400.0 mg/kg/injection, schedule: Q01DX009 (ip), vehicle: Klucel (hydroxypropylcellulose) (HPC)
[6] = dose: 400.0 mg/kg/injection, schedule: Q04DX003 (ip), vehicle: Klucel (hydroxypropylcellulose) (HPC)
[7] = dose: 100.0 mg/kg/injection, schedule: Q01DX009 (ip), vehicle: saline with Tween-80
[8] = dose: 200.0 mg/kg/injection, schedule: Q01DX009 (ip), vehicle: saline with Tween-80
[9] = dose: 100.0 mg/kg/injection, schedule: Q01DX001 (ip), vehicle: saline
[10] = dose: 200.0 mg/kg/injection, schedule: Q01DX001 (ip), vehicle: saline
[11] = dose: 400.0 mg/kg/injection, schedule: Q01DX001 (ip), vehicle: saline
[12] = dose: 100.0 mg/kg/injection, schedule: Q04DX003 (ip), vehicle: saline with Tween-80
[13] = dose: 200.0 mg/kg/injection, schedule: Q04DX003 (ip), vehicle: saline with Tween-80
[14] = dose: 400.0 mg/kg/injection, schedule: Q04DX003 (ip), vehicle: saline with Tween-80
[15] = dose: 100.0 mg/kg/injection, schedule: Q04DX003 (ip), vehicle: saline
[16] = dose: 200.0 mg/kg/injection, schedule: Q04DX003 (ip), vehicle: saline
[17] = dose: 400.0 mg/kg/injection, schedule: Q04DX003 (ip), vehicle: saline
[18] = dose: 100.0 mg/kg/injection, schedule: Q04DX002 (ip), vehicle: Klucel (hydroxypropylcellulose) (HPC)
[19] = dose: 200.0 mg/kg/injection, schedule: Q04DX002 (ip), vehicle: Klucel (hydroxypropylcellulose) (HPC)
[20] = dose: 400.0 mg/kg/injection, schedule: Q04DX002 (ip), vehicle: Klucel (hydroxypropylcellulose) (HPC)
[21] = dose: 100.0 mg/kg/injection, schedule: Q01DX001 (ip), vehicle: Klucel (hydroxypropylcellulose) (HPC)
[22] = dose: 200.0 mg/kg/injection, schedule: Q01DX001 (ip), vehicle: Klucel (hydroxypropylcellulose) (HPC)
[23] = dose: 400.0 mg/kg/injection, schedule: Q01DX001 (ip), vehicle: Klucel (hydroxypropylcellulose) (HPC)
[24] = dose: 50.0 mg/kg/injection, schedule: Q01DX009 (ip), vehicle: Klucel (hydroxypropylcellulose) (HPC)

Measured: T/C

CCOc1ccc(OCC)c2c1C(=O)c1ccccc1C2=O
inactive: [1] 97 % of control | [2] 95 % of control | [3] 100 % of control | [4] 100 % of control | [5] 97 % of control | [6] 97 % of control

S=C(Nc1cccc2ccccc12)N1CCOCC1
inactive: [1] 94 % of control | [3] 120 % of control | [5] 96 % of control

CC(NC(=O)OCc1ccccc1)C(=O)Nc1ccc(C(=O)O)c(O)c1 (stereo unspecified)
inactive: [7] 90 % of control | [8] 88 % of control | dose: 400.0 mg/kg/injection, schedule: Q01DX009 (ip), vehicle: saline with Tween-80 98 % of control

COC(=O)CCN(c1cccc(Cl)c1)S(=O)(=O)c1ccc(C)cc1
inactive: [9] 98 % of control | [10] 92 % of control | [11] 98 % of control

CCCCCc1c2c(c(CCCCC)c3c1-c1cccc4cccc-3c14)-c1ccc(C)cc1C2
inactive: dose: 100.0 mg/kg/injection, schedule: Q01DX001 (ip), vehicle: saline with Tween-80 92 % of control | dose: 400.0 mg/kg/injection, schedule: Q01DX001 (ip), vehicle: saline with Tween-80 87 % of control

CC(=O)OC1=C(C)C2=C3OC(=O)C(C)=C3CC[C@@]2(C)CC1
inactive: [9] 97 % of control | [10] 101 % of control | [11] 95 % of control

O=C(O)C(Cl)c1ccccc1 (stereo unspecified)
inactive: dose: 25.0 mg/kg/injection, schedule: Q01DX009 (ip), vehicle: gum acacia 114 % of control | dose: 50.0 mg/kg/injection, schedule: Q01DX009 (ip), vehicle: gum acacia 109 % of control | dose: 100.0 mg/kg/injection, schedule: Q01DX009 (ip), vehicle: gum acacia 106 % of control | [2] 92 % of control | [12] 95 % of control | [4] 93 % of control | [13] 101 % of control | [6] 97 % of control | [14] 88 % of control

NC(=O)c1ccccc1NC(=O)COc1ccc(Cl)cc1
inactive: [1] 95 % of control | [2] 97 % of control | [3] 92 % of control | [4] 98 % of control | [5] 97 % of control | [6] 106 % of control

CCN(CC)CCOC(=O)c1cc(=O)n(CCC(C)C)c2ccccc12
inactive: [15] 113 % of control | [16] 107 % of control | [17] 101 % of control

CCC1CN2N=Cc3ccccc3C2=N1 (stereo unspecified)
inactive: dose: 10.0 mg/kg/injection, schedule: Q01DX001 (ip), vehicle: saline 105 % of control | dose: 20.0 mg/kg/injection, schedule: Q01DX001 (ip), vehicle: saline 103 % of control

COc1cc(/C=N/NC(=O)CNC(=O)c2ccc(Cl)cc2Cl)ccc1O
inactive: dose: 50.0 mg/kg/injection, schedule: Q01DX009 (ip), vehicle: saline with Tween-80 91 % of control | [7] 86 % of control | [8] 88 % of control

O=C1C(NC(=O)C(Cl)Cl)=C(N2CC2)C(=O)c2ccccc21
inactive: [2] 98 % of control | [4] 102 % of control | [6] 98 % of control

NNC(=O)CNc1ccc(F)c(C(F)(F)F)c1
inactive: [18] 107 % of control | [19] 118 % of control

O=C1/C(=C(/c2ccccc2)N2CCOCC2)Cc2ccccc21
inactive: dose: 25.0 mg/kg/injection, schedule: Q04DX003 (ip), vehicle: saline with Tween-80 90 % of control | [12] 95 % of control

Cc1nc2cc(N=Cc3ccc(N(CCCl)CCCl)cc3F)ccc2n1C
inactive: [18] 104 % of control | [19] 101 % of control | [20] 104 % of control

COc1cc[n+]([O-])cc1
inactive: dose: 100.0 mg/kg/injection, schedule: Q01DX009 (ip), vehicle: saline 103 % of control | dose: 100.0 mg/kg/injection, schedule: Q01DX Z (ip), vehicle: saline 102 % of control and 106 % of control | [15] 121 % of control | dose: 150.0 mg/kg/injection, schedule: Q01DX Z (ip), vehicle: saline 103 % of control and 107 % of control | dose: 200.0 mg/kg/injection, schedule: Q01DX009 (ip), vehicle: saline 100 % of control | [16] 114 % of control | dose: 225.0 mg/kg/injection, schedule: Q01DX Z (ip), vehicle: saline 95 % of control and 97 % of control | dose: 300.0 mg/kg/injection, schedule: Q01DX Z (ip), vehicle: saline 92 % of control and 106 % of control | dose: 400.0 mg/kg/injection, schedule: Q01DX009 (ip), vehicle: saline 99 % of control | [17] 95 % of control

CCOC(=O)c1nnn(-c2cccc(C(F)(F)F)c2)c1-c1ccccc1
inactive: [18] 101 % of control | [19] 105 % of control | [20] 96 % of control

Cc1ccc(S(=O)(=O)OCC23CC4C5CC2C3(COS(=O)(=O)c2ccc(C)cc2)CC54)cc1
inactive: dose: 75.0 mg/kg/injection, schedule: Q01DX009 (ip), vehicle: Klucel (hydroxypropylcellulose) (HPC) 95 % of control | dose: 150.0 mg/kg/injection, schedule: Q01DX009 (ip), vehicle: Klucel (hydroxypropylcellulose) (HPC) 98 % of control | dose: 300.0 mg/kg/injection, schedule: Q01DX009 (ip), vehicle: Klucel (hydroxypropylcellulose) (HPC) 93 % of control

CC(C)(C)CC(C)(C)c1ccc(OCCOc2ccc(C(=O)Nc3ccc(NC(=O)c4ccc5ccccc5c4O)cc3)cc2)cc1
inactive: [12] 105 % of control | [13] 90 % of control | [14] 90 % of control

O=C(O)c1ccccc1C(=O)c1ccc(-c2ccccc2)cc1
inactive: [21] 110 % of control | [22] 102 % of control | [23] 100 % of control

O=[N+]([O-])c1cc(Br)ccc1O
inactive: [15] 100 % of control | [16] 89 % of control

OC/C(=C\c1ccccc1)c1ccccc1
inactive: [12] 92 % of control | [13] 94 % of control | [14] 92 % of control

CCCCCCCCc1cc(Cl)c(O)c(Cl)c1
inactive: [24] 105 % of control | [1] 105 % of control | [3] 93 % of control

CCCCOC(=O)COc1cc(Cl)c(Cl)cc1Cl
inactive: dose: 100.0 mg/kg/injection, schedule: Q04DX002 (ip), vehicle: saline with Tween-80 93 % of control | dose: 200.0 mg/kg/injection, schedule: Q04DX002 (ip), vehicle: saline with Tween-80 104 % of control

CCCOc1ccc(-c2nc(-c3ccc(N=Cc4ccc(N(CCOS(C)(=O)=O)CCOS(C)(=O)=O)cc4Cl)cc3)cs2)cc1
inactive: [24] 107 % of control | [21] 102 % of control | [1] 100 % of control | [22] 100 % of control | [3] 107 % of control | [23] 96 % of control
